pKi: −log10 of the molar value. Active and inactive are the calls of the source. The calls are words filed in the database; no cut-off is given here.
How the values were obtained:
[1] = target: T1, Type-1 angiotensin II receptor A (Rattus norvegicus, UniProt P25095); experiment: Displacement of [125I]-SI-Ang-2 from AT1 receptor in Rattus norvegicus Sprague-Dawley (rat) liver membranes after 2 hr; parameters: species or system Membrane
T1 sequence (P25095 whole entry): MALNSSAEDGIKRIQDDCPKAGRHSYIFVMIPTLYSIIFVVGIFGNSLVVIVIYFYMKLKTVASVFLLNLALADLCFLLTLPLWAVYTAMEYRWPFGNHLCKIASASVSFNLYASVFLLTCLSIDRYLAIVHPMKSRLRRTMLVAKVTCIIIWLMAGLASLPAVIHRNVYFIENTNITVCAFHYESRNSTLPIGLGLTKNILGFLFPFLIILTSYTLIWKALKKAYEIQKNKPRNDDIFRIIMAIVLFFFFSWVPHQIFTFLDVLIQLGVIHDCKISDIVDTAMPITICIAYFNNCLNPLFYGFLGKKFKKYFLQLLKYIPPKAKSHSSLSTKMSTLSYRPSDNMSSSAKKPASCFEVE

[2] = target: T2, Peroxisome proliferator-activated receptor gamma (Mus musculus) (UniProt P37238); experiment: Agonist activity at Mus musculus (mouse) PPARgamma LBD expressed in african green monkey CV-1 cells co-expressing GAL4 assessed as […] at 1 uM after 24 hr by luciferase assay relative to rosiglitazone; type: cell-based
T2 sequence (whole entry): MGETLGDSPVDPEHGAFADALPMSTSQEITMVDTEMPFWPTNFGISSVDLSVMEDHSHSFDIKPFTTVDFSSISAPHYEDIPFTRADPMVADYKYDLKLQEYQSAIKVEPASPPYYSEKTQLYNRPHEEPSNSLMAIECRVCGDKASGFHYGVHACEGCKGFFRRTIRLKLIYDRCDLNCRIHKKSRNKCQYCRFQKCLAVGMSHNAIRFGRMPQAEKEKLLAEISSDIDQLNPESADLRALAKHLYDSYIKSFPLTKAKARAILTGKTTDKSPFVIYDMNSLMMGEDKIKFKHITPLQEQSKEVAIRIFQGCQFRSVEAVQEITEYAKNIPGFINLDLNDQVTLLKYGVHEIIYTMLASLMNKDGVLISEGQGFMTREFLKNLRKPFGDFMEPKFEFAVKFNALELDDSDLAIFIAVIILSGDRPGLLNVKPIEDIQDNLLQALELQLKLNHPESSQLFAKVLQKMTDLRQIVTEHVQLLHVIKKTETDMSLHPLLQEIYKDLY

3T3-L1 = experiment: Induction of adipocyte differentiation in Mus musculus (mouse) 3T3L1 cells at 1 to 5 uM; type: functional, cell-based

| Structure (SMILES) | pKi [1] | %max [2] [%] | Activity (3T3-L1) |
| --- | --- | --- | --- |
| COC(=O)c1cc(CC2SC(=O)NC2=O)ccc1OCCN(C)C(=O)CCCCC1CCCCC1 (stereo unspecified) | < 5.00 | 90.4 | – |
| CCCc1nc2c(C)cc(-c3nc4ccccc4n3C)cc2n1Cc1ccc(-c2ccccc2C(=O)O)cc1 | – | 21.2 | Active |
| CCCc1nc2c(C)cc(-c3nc4ccccc4n3C)cc2n1CCOc1ccc(CC2SC(=O)NC2=O)cc1C(=O)OC (stereo unspecified) | < 5.00 | – | – |
| CCCc1nc2c(C)cc(Br)cc2n1CCOc1ccc(CC2SC(=O)NC2=O)cc1C(=O)OC (stereo unspecified) | < 5.00 | 51.6 | – |
| COC(=O)c1cc(CC2SC(=O)NC2=O)ccc1OCCn1c(CCCCC2CCCCC2)nc2ccccc21 (stereo unspecified) | < 5.00 | 38.7 | – |
| CCCc1nc2c(C)cc(-c3ccccc3)cc2n1CCOc1ccc(CC2SC(=O)NC2=O)cc1C(=O)OC (stereo unspecified) | < 5.00 | 11.9 | – |

Reference: ChEMBL document CHEMBL3045241, “Design, synthesis, and docking studies of novel telmisartanglitazone hybrid analogs for the treatment of metabolic syndrome” (Med Chem Res, 2009)
